Measurements from publication PMC6640638 (Journal of the American Chemical Society, 2016).

Key:
Test in all cases: adenylation: pyrophosphate exchange or coupled pyrophosphate release assay
Assay type in all cases: biochemical
Details in all cases: adenylation step; ATP
[1] = target: T1, tyrosyl-tRNA synthetase (TyrRS, class IC) (Escherichia coli, UniProt P0AGJ9)
T1 sequence (P0AGJ9 2-424): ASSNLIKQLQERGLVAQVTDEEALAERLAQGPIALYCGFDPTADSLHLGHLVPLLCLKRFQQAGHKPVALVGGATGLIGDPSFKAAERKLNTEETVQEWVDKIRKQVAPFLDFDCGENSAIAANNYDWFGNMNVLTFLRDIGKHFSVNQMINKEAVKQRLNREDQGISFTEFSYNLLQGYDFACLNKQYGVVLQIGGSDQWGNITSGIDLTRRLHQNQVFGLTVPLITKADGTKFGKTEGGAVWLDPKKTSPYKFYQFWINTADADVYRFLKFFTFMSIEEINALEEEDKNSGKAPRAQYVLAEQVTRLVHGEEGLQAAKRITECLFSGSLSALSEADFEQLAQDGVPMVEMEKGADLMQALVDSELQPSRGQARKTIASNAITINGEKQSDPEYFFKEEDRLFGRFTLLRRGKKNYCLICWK

[2] = target: phenylalanyl-tRNA synthetase (PheRS, class IIC) (Escherichia coli, UniProt P08312)
[3] = target: T2, glycyl-tRNA synthetase (GlyRS, class IIC) (Escherichia coli, UniProt P00960)
T2 sequence (P00960 1-303): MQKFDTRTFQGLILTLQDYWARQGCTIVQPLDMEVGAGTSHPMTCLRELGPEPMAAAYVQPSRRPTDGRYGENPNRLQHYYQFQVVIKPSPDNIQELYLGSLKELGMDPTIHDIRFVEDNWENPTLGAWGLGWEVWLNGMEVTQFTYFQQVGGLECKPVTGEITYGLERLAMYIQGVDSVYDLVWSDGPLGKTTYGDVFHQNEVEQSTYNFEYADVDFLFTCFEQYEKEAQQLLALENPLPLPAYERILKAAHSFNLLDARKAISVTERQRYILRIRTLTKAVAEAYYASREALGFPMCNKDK
T2 sequence (P00961 2-689 partner): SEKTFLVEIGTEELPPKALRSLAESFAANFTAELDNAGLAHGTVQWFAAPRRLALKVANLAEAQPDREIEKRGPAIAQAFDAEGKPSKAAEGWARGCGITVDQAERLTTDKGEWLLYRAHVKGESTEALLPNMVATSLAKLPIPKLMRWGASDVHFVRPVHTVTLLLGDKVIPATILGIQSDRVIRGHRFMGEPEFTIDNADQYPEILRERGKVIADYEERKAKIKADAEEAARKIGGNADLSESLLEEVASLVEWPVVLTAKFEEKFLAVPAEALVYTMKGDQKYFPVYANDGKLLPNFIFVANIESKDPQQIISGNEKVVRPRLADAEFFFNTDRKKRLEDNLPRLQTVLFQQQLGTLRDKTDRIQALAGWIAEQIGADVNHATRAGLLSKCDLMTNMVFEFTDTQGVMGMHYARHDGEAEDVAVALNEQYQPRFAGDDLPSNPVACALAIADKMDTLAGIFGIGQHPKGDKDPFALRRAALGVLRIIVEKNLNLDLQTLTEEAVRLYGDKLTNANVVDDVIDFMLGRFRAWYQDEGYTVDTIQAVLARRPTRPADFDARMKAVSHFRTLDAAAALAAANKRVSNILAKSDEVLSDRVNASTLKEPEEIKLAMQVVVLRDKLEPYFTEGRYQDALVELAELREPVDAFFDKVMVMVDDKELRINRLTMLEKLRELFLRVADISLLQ

phenylalanyl-tRNA synthetase (PheRS, class IIC), sequence (P08312 whole entry): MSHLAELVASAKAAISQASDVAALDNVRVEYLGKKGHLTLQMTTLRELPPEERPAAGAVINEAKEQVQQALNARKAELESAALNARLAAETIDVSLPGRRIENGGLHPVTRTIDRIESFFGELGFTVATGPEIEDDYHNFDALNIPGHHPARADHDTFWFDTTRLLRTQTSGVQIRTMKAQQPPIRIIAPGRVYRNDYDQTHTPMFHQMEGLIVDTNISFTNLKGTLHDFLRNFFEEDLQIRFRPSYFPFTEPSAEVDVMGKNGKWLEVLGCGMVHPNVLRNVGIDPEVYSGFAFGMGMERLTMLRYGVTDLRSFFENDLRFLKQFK
phenylalanyl-tRNA synthetase (PheRS, class IIC), sequence (P07395 whole entry partner): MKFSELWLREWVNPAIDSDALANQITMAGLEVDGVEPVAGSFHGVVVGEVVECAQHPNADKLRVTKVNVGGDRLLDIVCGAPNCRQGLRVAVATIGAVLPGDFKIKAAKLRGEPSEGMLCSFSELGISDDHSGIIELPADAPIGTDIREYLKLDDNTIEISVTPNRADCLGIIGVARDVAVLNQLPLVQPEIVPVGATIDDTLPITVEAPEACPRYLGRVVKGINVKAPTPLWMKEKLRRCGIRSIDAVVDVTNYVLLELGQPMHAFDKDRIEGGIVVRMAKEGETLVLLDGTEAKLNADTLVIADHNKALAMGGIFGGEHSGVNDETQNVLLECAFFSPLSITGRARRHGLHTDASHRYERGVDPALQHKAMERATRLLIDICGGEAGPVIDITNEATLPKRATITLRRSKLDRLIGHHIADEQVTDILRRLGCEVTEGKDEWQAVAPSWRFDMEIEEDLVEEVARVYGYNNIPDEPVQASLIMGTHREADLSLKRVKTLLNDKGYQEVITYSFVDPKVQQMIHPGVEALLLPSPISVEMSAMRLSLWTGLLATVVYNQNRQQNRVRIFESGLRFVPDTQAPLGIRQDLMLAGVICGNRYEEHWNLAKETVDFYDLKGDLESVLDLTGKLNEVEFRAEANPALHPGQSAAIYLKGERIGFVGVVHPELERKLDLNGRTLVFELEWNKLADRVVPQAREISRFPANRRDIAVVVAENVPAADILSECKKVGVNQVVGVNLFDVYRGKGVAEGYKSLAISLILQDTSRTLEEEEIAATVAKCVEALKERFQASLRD

SMILES	KM [2]	KM [3]	other results
N[C@@H](Cc1ccc(O)cc1)C(=O)O [α-Tyr]	–	–	KM [1]: GluRS and TyrRS (both class I) show the greatest selection against β^3-amino acid substrates
NC(CC(=O)O)Cc1ccccc1 (stereo not drawn) [β^3-Phe]	GlyRS and PheRS (class II) tolerate the expanded β^3-amino acid backbone	–	–
NCC(=O)O [α-Gly]	–	GlyRS and PheRS (class II) tolerate the expanded β^3-amino acid backbone	–
N[C@@H](Cc1ccccc1)C(=O)O [α-Phe]	GlyRS and PheRS (class II) tolerate the expanded β^3-amino acid backbone	–	–
NCCC(=O)O [β^3-Gly]	–	GlyRS and PheRS (class II) tolerate the expanded β^3-amino acid backbone	–
